Test results reported in ChEMBL document CHEMBL1201862, “PubChem BioAssay data set” (2004).
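Cultured in 96-well plates, cells were exposed to test compound for 48 hours across five concentrations. At the GI50, growth is halved.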 Active and inactive are the calls of the source. No stated cut-off is given here; in the data, active = GI50 up to about 1.1 µM and inactive = higher.

Legend:
Assay in all cases: DTP human tumour cell line panel, 48 h
[1] = system: RXF 393
[2] = system: PC-3
[3] = system: NCI-H460
[4] = system: OVCAR-4
[5] = system: UACC-257
[6] = system: COLO 205
[7] = system: HL-60
[8] = system: MDA-MB-435
[9] = system: NCI-H226
[10] = system: ACHN
[11] = system: MOLT-4
[12] = system: SK-MEL-28
[13] = system: UO-31
[14] = system: CAKI-1
[15] = system: SNB-75
[16] = system: SNB-19
[17] = system: SF-539
[18] = system: KM12
[19] = system: OVCAR-3
[20] = system: SK-MEL-5

Measured: GI50

O=C1CC(C(O)C(O)C(O)CO)CC(=O)N1 (stereo unspecified)
inactive: [1] > 100 µM | [2] > 100 µM | [3] > 100 µM | [4] > 100 µM | [5] > 100 µM | [6] > 100 µM | [7] > 100 µM | [8] > 100 µM | [9] > 100 µM | [10] > 100 µM | [11] > 100 µM | [12] > 100 µM | [13] > 100 µM | [14] > 100 µM | [15] > 100 µM | [16] > 100 µM | [17] > 100 µM | [18] > 100 µM | [19] > 100 µM | [20] > 100 µM

CC1(C)OC2C(CO)OC(n3cnc(N)nc3=O)C2O1 (stereo unspecified)
inactive: [1] > 100 µM | [2] > 100 µM | [3] > 100 µM | [5] > 100 µM | [6] > 100 µM | [7] > 100 µM | [8] > 100 µM | [9] > 100 µM | [10] > 100 µM | [11] > 100 µM | [12] > 100 µM | [13] > 100 µM | [14] > 100 µM | [16] > 100 µM | [17] > 100 µM | [19] > 100 µM | [20] > 100 µM

Cc1nn(C(=O)c2ccccc2O)c2c1C(c1ccc(O)cc1O)SC(=N)N2 (stereo unspecified)
inactive: [1] 5.52 µM | [2] 3.22 µM | [3] 4.6 µM | [4] 2.94 µM | [6] 9.35 µM | [7] 5.52 µM | [8] 4.05 µM | [9] 1.32 µM | [10] 4.75 µM | [11] 3.48 µM | [12] 8.91 µM | [13] 2.84 µM | [14] 4.29 µM | [15] 2.48 µM | [16] 4.86 µM | [17] 3.77 µM | [18] 6.19 µM | [19] 2.96 µM | [20] 4.12 µM

CC(O)(/C=C/c1ccccc1)P(=O)(O)c1ccccc1 (stereo unspecified)
inactive: [1] > 100 µM | [2] > 100 µM | [3] > 100 µM | [4] > 100 µM | [5] > 100 µM | [6] > 100 µM | [7] > 100 µM | [8] > 100 µM | [9] > 100 µM | [10] > 100 µM | [12] > 100 µM | [14] > 100 µM | [15] 37.9 µM | [16] > 100 µM | [17] > 100 µM | [18] > 100 µM | [19] > 100 µM | [20] > 100 µM

Cc1ccc(S(=O)(=O)Oc2cc(S(=O)(=O)O)cc3cc(S(=O)(=O)O)cc(N)c23)cc1
inactive: [1] > 100 µM | [2] > 100 µM | [3] > 100 µM | [4] > 100 µM | [5] > 100 µM | [6] > 100 µM | [7] > 100 µM | [8] > 100 µM | [9] > 100 µM | [10] > 100 µM | [12] > 100 µM | [13] 41.1 µM | [14] > 100 µM | [15] > 100 µM | [16] > 100 µM | [17] > 100 µM | [18] > 100 µM | [19] > 100 µM | [20] > 100 µM

O=C(O)c1ccc([N+](=O)[O-])c(P(=O)(O)O)c1
inactive: [1] > 100 µM | [2] > 100 µM | [3] > 100 µM | [4] > 100 µM | [5] > 100 µM | [6] > 100 µM | [7] > 100 µM | [8] > 100 µM | [9] > 100 µM | [10] > 100 µM | [11] > 100 µM | [12] > 100 µM | [13] > 100 µM | [14] > 100 µM | [16] > 100 µM | [17] > 100 µM | [18] > 100 µM | [19] > 100 µM | [20] > 100 µM

O=C(c1ccc(/N=C/c2ccccc2O)cc1)c1ccc(/N=C/c2ccccc2O)cc1
inactive: [1] > 100 µM | [2] > 100 µM | [3] > 100 µM | [4] > 100 µM | [6] 30.1 µM | [7] > 100 µM | [8] > 100 µM | [9] > 100 µM | [10] > 100 µM | [11] > 100 µM | [12] > 100 µM | [13] > 100 µM | [14] > 100 µM | [15] > 100 µM | [16] > 100 µM | [17] > 100 µM | [18] > 100 µM | [19] > 100 µM | [20] 6.11 µM

COc1cc2c(cc1OC)-c1c(oc3cc(OC4OC(CO)C(O)C(O)C4O)c(OC)cc3c1=O)C(O)O2 (stereo unspecified)
inactive: [1] > 100 µM | [2] > 100 µM | [3] > 100 µM | [4] > 100 µM | [5] > 100 µM | [6] > 100 µM | [7] > 100 µM | [8] > 100 µM | [9] > 100 µM | [10] > 100 µM | [12] > 100 µM | [13] > 100 µM | [14] > 100 µM | [15] > 100 µM | [16] > 100 µM | [17] > 100 µM | [18] > 100 µM | [19] > 100 µM | [20] > 100 µM

COc1cc2c(cc1OCCCC(=O)Nc1cc(C(=O)Nc3cc(C(=O)NCCCN(C)C)n(C)n3)n(C)n1)N=CC1CCCN1C2=O (stereo unspecified)
inactive: [1] 16.7 µM | [2] 31.8 µM | [3] 14.4 µM | [4] 13.3 µM | [5] 17.8 µM | [6] 13.5 µM | [7] 15.2 µM | [8] 16.8 µM | [9] 44.4 µM | [10] 16.2 µM | [11] 4.79 µM | [12] 16.7 µM | [13] 16.7 µM | [14] 16.8 µM | [16] 12.6 µM | [17] 21.7 µM | [18] 34.9 µM | [19] 18.5 µM | [20] 15 µM

COC(=O)[C@H](C)NC(=O)[C@H](NS(=O)(=O)c1nc2ccccc2s1)c1ccccc1
inactive: [1] 16.9 µM | [2] 38.8 µM | [3] 24.9 µM | [4] 26.2 µM | [5] 12.9 µM | [6] 13.1 µM | [7] 39.3 µM | [8] 41 µM | [9] 14.5 µM | [10] 33.9 µM | [11] 29 µM | [12] 17 µM | [13] 19.7 µM | [14] 32.4 µM | [15] 18.6 µM | [16] 27.4 µM | [17] 15.6 µM | [18] 14 µM | [20] 15.8 µM

Cc1ccc(-c2c(C#N)c(-c3ccc(N(C)C)cc3)c(C#N)c(=O)n2NS(=O)(=O)c2ccccc2)cc1
inactive: [1] 22.7 µM | [2] 33.4 µM | [3] 18.1 µM | [4] 19.9 µM | [5] > 100 µM | [6] 40.8 µM | [7] 44.8 µM | [8] 43.7 µM | [9] > 100 µM | [10] 42.7 µM | [11] 16.4 µM | [12] 45.9 µM | [14] 31.7 µM | [15] 37 µM | [16] 63.7 µM | [17] 21.9 µM | [18] 31.3 µM | [20] 17.3 µM
